The first test relates to NO production. The test can be described thus: NO production-inhibiting effect in RAW264.7 cells (nitrite ion, DAN fluorescence). The test is classed as cell-based, Mouse. To be noted: Mus musculus; RAW264.7 cells stimulated with LPS 5 ng/ml and interferon gamma 1 U/ml; nitrite ion in culture supernatant; Compounds 1 and 3: minimum and maximum of 7 and 9 tests; read-out: IC50 (μM), NO production inhibition. On the procedure:
Mouse macrophage cell line RAW264.7 was used as an iNOS-inducible cell and a test compound was examined for its % inhibition of NO production. The test compound was dissolved at 10 mM in N,N-dimethylformamide and diluted with an RPMI-1640 medium at the concentration of 0.1 mM. The concentration was further adjusted using the medium so that a final concentration ranging from 10 μM to 10 nM could be obtained by a 10-fold serial dilution and the test compound was added to a culture medium. On the day before the experiment, the cell was adjusted at 5×10^5/ml in an RPMI-1640 medium supplemented with 10% inactivated fetal calf serum and inoculated to a 96-well microplate at 1×10^5 cells/0.2 ml per well. After incubating at 37° C. under an atmosphere of 5% CO2/95% air overnight, the test compound adjusted as described above was added and then LPS and interferon gamma were added at the final concentrations of 5 ng/ml and 1 U/ml, respectively. After further incubating overnight, culture supernatants were examined for the concentration of nitrite ion (stable metabolite of NO) which was used as an index for the NO production. The nitrite ion concentration was determined by adding 25 μl of 20 μg/ml of 2,3-diaminonaphthalene (DAN) to 50 μl of the culture supernatant, followed by incubating at room temperature for 10 minutes, followed by adding 25 μl of 0.5 N NaOH, followed by determining a fluorescence at 450 nm (excitation wavelength: 365 nm). An IC50 represents the concentration of the test compound which inhibits 50% of the NO production.
What is called IC50 is the midpoint of a concentration-inhibition curve. In the case of `CCOC(=O)C1=CCCCC1S(=O)(=O)Nc1ccccc1CC` (stereo not drawn) [Compound 39, ethyl 6-[N-(2-ethylphenyl)sulfamoyl]-1-cyclohexene-1-carboxylate], the IC50 stood at 0.32 µM. Regarding `CCOC(=O)C1=CCCCC1S(=O)(=O)Nc1ccc([N+](=O)[O-])cc1` (stereo not drawn) [Compound 5, ethyl 6-[N-(4-nitrophenyl)sulfamoyl]-1-cyclohexene-1-carboxylate], the concentration for half-maximal inhibition (IC50) came out at 3.7 µM. On to `CCOC(=O)C1=CCCCC1S(=O)(=O)Nc1cccc(Cl)c1` (stereo not drawn) [Compound 37, ethyl 6-[N-(3-chlorophenyl)sulfamoyl]-1-cyclohexene-1-carboxylate], for which the IC50 amounted to 0.13 µM. As for `CCOC(=O)C1=CCCCC1S(=O)(=O)Nc1ccc(Cl)cc1` (stereo not drawn) [Compound 30, ethyl 6-[N-(4-chlorophenyl)sulfamoyl]-1-cyclohexene-1-carboxylate], the IC50 came to 0.54 µM.

The same test, now with this note: RAW264.7 cells stimulated with LPS 5 ng/ml and interferon gamma 1 U/ml; nitrite ion in culture supernatant; Compounds 1 and 3: minimum and maximum of 7 and 9 tests; read-out: IC50 (μM), NO production inhibition.
In the case of “ethyl 7-[N-(2-chloro-4-fluorophenyl)sulfamoyl]-1-dycloheptene-1-carboxylate [Compound 65]”, the IC50 was determined as 0.32 µM.

For the compound `CCOC(=O)C1=CCCCC1S(=O)(=O)Nc1ccc(F)cc1F` (stereo not drawn) [Compound 20, d-ethyl 6-[N-(2,4-difluorophenyl)sulfamoyl]-1-cyclohexene-1-carboxylate], the IC50 came out at 0.005 µM.

These data come from patent publication US7960416B2, “Stable emulsion composition” (Takeda Pharmaceutical Company Limited, priority 2001, dated 2011).
